Data on nine molecules can be found in patent US12344610B2, “APOL1 inhibitors and methods of use” (Maze Therapeutics, Inc., priority 2022, dated 2025).

Common to all, as to format: cell-based
One assay concerns the target T1, APOL1 G2 (Homo sapiens, UniProt O14791, DEL388-389).
T1 construct: expressed in transfected cells; host or cells: HEK293 T-REx clonal line stably expressing GCaMP6f (HEK T-REx/GCaMP6f/APOL1 G2 K6.3), doxycycline induced
T1 sequence (O14791 with tags, fused parts or gaps DEL388-389): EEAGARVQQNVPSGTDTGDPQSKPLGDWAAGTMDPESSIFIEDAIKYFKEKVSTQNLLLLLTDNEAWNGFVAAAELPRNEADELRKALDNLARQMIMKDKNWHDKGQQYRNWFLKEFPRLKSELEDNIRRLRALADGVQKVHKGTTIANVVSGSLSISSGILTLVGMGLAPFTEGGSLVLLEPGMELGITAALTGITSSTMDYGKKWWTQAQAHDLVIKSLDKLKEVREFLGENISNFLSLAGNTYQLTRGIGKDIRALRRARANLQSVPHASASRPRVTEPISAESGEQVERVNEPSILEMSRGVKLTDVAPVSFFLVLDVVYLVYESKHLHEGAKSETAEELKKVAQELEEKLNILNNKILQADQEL
Description: APOL1-mediated calcium transport (calcium influx) assay, HEK T-REx/GCaMP6f/APOL1 G2 K6.3 cells, FLIPR TETRA. As to conditions: prevention of calcium influx; geometric mean of at least 2 assay runs; † = average of a technical replicate from a single assay run. The method, then:
A HEK293 clonal cell line was generated to stably express GCaMP6f, a genetically encoded calcium indicator, and inducibly express APOL1 G2 (HEK T-REx/GCaMP6f/APOL1 G2 K6.3). Cells were maintained in the following standard complete medium: DMEM with 4.5 g/L glucose and sodium pyruvate (BioWhittaker, Lonza, BE12-614F), supplemented with 10% FBS Performance Plus (Gibco, 16000044), 1% penicillin-streptomycin (BioWhittaker, DE17-602E), 2 mM ultraglutamine-1 (BioWhittaker cat. BE 17-605/U1), 50 μg/mL Zeocin (InvivoGen, ant-zn), 2.5 μg/mL Blasticidin (InvivoGen, ant-bl-5), and 25 μg/mL Hygromycin (InvivoGen, ant-hg). Standard propagation conditions consisted of plating 9×10^6, 4×10^6, 2×10^6 cells in a T225 flasks to be processed after 2, 3, or 4 days, respectively.
A source plate was generated containing 20 serially diluted compounds in DMSO (duplicate 8-point dose response). Next, 0.8 μL of compounds were transferred from the source plate to a destination plate prefilled with 79.2 μL of Ca^2+ free Tyrode's buffer (130 mM NaCl, 5 mM KCl, 1 mM MgCl2, 5 mM NaHCO3, 20 mM HEPES at pH 7.4). The destination plate was placed on a plate shaker (5 seconds at 2000 rpm) to mix. […] All transfer and mixing steps were conducted with an CyBi®-Well dispenser.
Cells were split by gently washing with DPBS (Euroclone, ECB4004L), followed by a 5-minute incubation (humidified, 37° C. with 5% CO2) with trypsin-EDTA solution (Euroclone, ECB3052D). Detached cells were diluted with standard complete medium without selective agents, counted, and plated in a 384 MTP microplate (GR4332CPL, Twin Helix) (10,000 cells/well in 25 μl/well) using a MATRIX WellMate dispenser. Plates were placed into a humidified incubator (37° C. with 5% CO2) overnight. The following day, 20 μL of doxycycline (Sigma, D9891) at 20 ng/mL in standard complete medium was added to cells with a CyBi® Drop dispenser to induce APOL1 G2 expression. After a 6-hour incubation (humidified, 37° C. with 5% CO2), cells were washed 3 times with Ca^2+ free Tyrode's Buffer (130 mM NaCl, 5 mM KCl, 1 mM MgCl2, 5 mM NaHCO3, 20 mM HEPES at pH 7.4) using a BIOTEK Microplate washer, such that 10 μL of buffer remained in each well after the final wash. Assay plates were then stored at room temperature for 10 minutes. Next, 10 μL of diluted compounds were transferred to the assay plate from the 2× compound plate using a CyBi®-Well dispenser. Compound incubation was then carried out at room temperature for 10 minutes. The assay plate was transferred to the FLIPR^TETRA and 20 μL of 10 mM Ca^2+ (final concentration=5 mM) Tyrode's buffer was injected.
Unless otherwise specified, AC50 and values are reported as the geometric mean of at least 2 assay runs on separate days. Each run represents the average of a technical replicate, where each compound was assayed twice in the same plate. A superscript t symbol indicates a value from the average of a technical replicate from a single assay run, where each compound was assayed twice in the same plate.
The AC50 values in Table 39 below reflect the compound's ability to prevent calcium influx by inhibiting APOL1. […] Compounds in Table 39 are referred to by the corresponding Compound Number in Table 1, which is also referred to in the synthetic examples. When one or more of the numbered compounds are identified by stereochemistry (for example, (R)- or (S)-), the specific stereoisomer for which data is provided in Table 39 may be identified by the elution order of such compound as described in the synthetic examples. For example, Compounds 39 and 40 are associated with Step 5 of Example 13, where Compound 39 is the first eluting enantiomer, and Compound 40 is the second eluting enantiomer in the chiral separation of Compound 38. For Table 39 below, n/a represents “not available”.

Assay [1] deals with HEK293 cells overexpressing APOL1 G2. The experiment in a line: APOL1 G2 HEK293 cell rescue assay (reversal of cell death caused by overexpression of APOL1). As to conditions: Homo sapiens, HEK293, HEK293 overexpressing APOL1 G2; geometric mean of at least 2 assay runs; † = single assay run. A digest of the protocol:
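Each compound tested in duplicate wells on one plate per run, with values usually the geometric mean across at least two runs on different days, occasionally from one run only. Read-out: concentration giving half-maximal rescue of APOL1 G2 overexpression-induced death of HEK293 cells.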

The test system of assay [2] is HEK293 clonal cell line overexpressing APOL1 G1. The experiment in a line: APOL1 G1 HEK293 cell rescue assay (Example B3). As to conditions: Homo sapiens, HEK293, HEK293 clonal line overexpressing APOL1 G1; geometric mean of at least 2 runs; † = single run; ¥ = concentration at 50% rescue estimated (no sigmoidal curve). A digest of the protocol: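 Rescue of cell death caused by APOL1 G1 overexpression was measured in a clonal HEK293 line. Compounds were tested in duplicate on one plate, and EC50s were geometric means across at least two runs on different days. Some values are estimated 50%-rescue concentrations where curve fitting failed.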

Broadly, the AC50 is the concentration giving half of the maximal activity seen. A word on the EC50: it is the concentration that produces a half-maximal response. `CS(=O)(=O)c1ccc(OCCN2CCC3(CC2)C(=O)N(C2COC2)c2ccc(Cl)cc23)cc1` [Compound 22, 5-chloro-1′-(2-(4-(methylsulfonyl)phenoxy)ethyl)-1-(oxetan-3-yl)spiro[indoline-3,4′-piperidin]-2-one]: the AC50 at APOL1 G2 was found to be 306 nM. The half-maximal effective concentration (EC50) in assay [1] was 232 nM; in assay [2], 580 nM.

`CS(=O)(=O)c1ccc(OCCN2CCC3(CC2)C(=O)Nc2ccccc23)cc1` [Compound 73, 1′-[2-(4-methanesulfonylphenoxy)ethyl]-1,2-dihydrospiro[indole-3,4′-piperidin]-2-one]: the half-maximal activity concentration (AC50) at APOL1 G2 was determined as 161 nM. In addition, the EC50 in assay [1] is 527 nM; in assay [2], 3520 nM.

Consider `[2H]C([2H])([2H])N1C(=O)C2(CCN(CCOc3ccc(C4(S(C)(=O)=O)CCC4)cc3)CC2)c2cc(Cl)ccc21` [Compound 415, 5-chloro-1′-{2-[4-(1-methanesulfonylcyclobutyl)phenoxy]ethyl}-1-(^2H3)methyl-1,2-dihydrospiro[indole-3,4′-piperidin]-2-one], for which the concentration at half-maximal activity (AC50) at APOL1 G2 was 319 nM. Besides, the figures for the EC50 in assay [1] and in assay [2] were 20.3 nM and 69.2 nM, respectively.

For the molecule `[2H]C([2H])([2H])N1C(=O)C2(CCN(CCOc3cnc4c(c3)CCC(=O)N4[C@H]3C[C@@](C)(O)C3)CC2)c2cc(Cl)ccc21` [Compound 419, 5-chloro-1-(^2H3)methyl-1′-[2-({7-oxo-8-[(1r,3s)-3-hydroxy-3-methylcyclobutyl]-5,6,7,8-tetrahydro-1,8-naphthyridin-3-yl}oxy)ethyl]-1,2-dihydrospiro[indole-3,4′-piperidin]-2-one], the concentration at half-maximal activity (AC50) at APOL1 G2 was 383 nM. The values for the EC50 in assay [1] and in assay [2] were 30.9 nM and 108 nM, respectively.

Consider `O=C1Cc2cc(OCCN3CCC4(CC3)C(=O)Nc3ccc(Cl)cc34)cc(F)c2N1` [Compound 256, 5-chloro-1′-{2-[(7-fluoro-2-oxo-2,3-dihydro-1H-indol-5-yl)oxy]ethyl}-1,2-dihydrospiro[indole-3,4′-piperidin]-2-one], for which the half-maximal activity concentration (AC50) on APOL1 G2 worked out at 261 nM. For the same molecule, the 50% effective concentration (EC50) in assay [1] is 44.6 nM; in assay [2], 116 nM.

As for `CC(=O)N1CCCc2cc(OCCN3CCC4(CC3)C(=O)Nc3ccc(C#N)cc34)cnc21` [Compound 81, 1′-{2-[(8-acetyl-5,6,7,8-tetrahydro-1,8-naphthyridin-3-yl)oxy]ethyl}-2-oxo-1,2-dihydrospiro[indole-3,4′-piperidine]-5-carbonitrile], the AC50 on APOL1 G2 turned out to be 549 nM. Further, the EC50 is 280 nM in assay [1] and 948 nM in assay [2].

Regarding `C[C@]1(O)C[C@@H](n2c(=O)cc(C(F)(F)F)c3cc(OCCN4CCC5(CC4)C(=O)Nc4ccc(Cl)cc45)cnc32)C1` [Compound 341, 5-chloro-1′-[2-({7-oxo-8-[(cis)-3-hydroxy-3-methylcyclobutyl]-5-(trifluoromethyl)-7,8-dihydro-1,8-naphthyridin-3-yl}oxy)ethyl]-1,2-dihydrospiro[indole-3,4′-piperidin]-2-one], the concentration at half-maximal activity (AC50) on APOL1 G2 was 1060 nM. The EC50 in assay [1] is 41.5 nM.

For `C[C@]1(O)C[C@@H](n2c(=O)cc(C(F)(F)F)c3cc(OCCN4CCC5(CC4)C(=O)Nc4ccc(C(F)F)cc45)cnc32)C1` [Compound 342, 5-(difluoromethyl)-1′-[2-({7-oxo-8-[(cis)-3-hydroxy-3-methylcyclobutyl]-5-(trifluoromethyl)-7,8-dihydro-1,8-naphthyridin-3-yl}oxy)ethyl]-1,2-dihydrospiro[indole-3,4′-piperidin]-2-one], the AC50 at APOL1 G2 stood at 780 nM. In addition, the 50% effective concentration (EC50) in assay [1] turned out to be 90.2 nM.

In the case of `C[C@]1(O)C[C@@H](n2cnc3cc(OCCN4CCC5(CC4)C(=O)Nc4ccc(C#N)cc45)cc(F)c32)C1` [Compound 455, 1′-(2-((7-fluoro-1-((cis)-3-hydroxy-3-methylcyclobutyl)-1H-benzo[d]imidazol-5-yl)oxy)ethyl)-2-oxospiro[indoline-3,4′-piperidine]-5-carbonitrile], the AC50 on APOL1 G2 came to 1250 nM. The EC50 in assay [1] was 75.3 nM.
